In patent US20140079634A1, “LABELED PE2I FORMULATION AND METHOD” (priority 2012, published 2014):

Assays:
Type in all cases: in vivo
[1] = biological target: T1, dopamine transporter (Homo sapiens, UniProt Q01959); experiment: SPECT imaging of the dopamine transporter, ADHD subjects; settings: six ADHD individuals, greater than 1 mCi intravenous
T1 construct: from tissue; host or cells: striatum in vivo (SPECT imaging of subjects)
Method: (§1) SPECT imaging of the dopamine transporter with 1231-PE2I is conducted on six subjects previously diagnosed with ADHD, and on control individuals without a diagnosis of ADHD. For each individual tested, greater than 1 mCi of 1231-PE2I is administered by intravenous injection at the onset of imaging. Images of the striatum are collected and analyzed by a radiologist to determine striatal binding potentials. In general, the methodology used for the SPECT imaging is the same as the methods described in Fischman et al., 1998, Synapse 29:125-41, which is incorporated herein by reference.

[2] = biological target: dopamine transporter (Rattus norvegicus, UniProt P23977); experiment: SPECT scan, transporter occupancy and binding parameters (Parkinson's Diagnosis)
dopamine transporter (Rattus norvegicus, UniProt P23977), sequence (P23977 whole entry): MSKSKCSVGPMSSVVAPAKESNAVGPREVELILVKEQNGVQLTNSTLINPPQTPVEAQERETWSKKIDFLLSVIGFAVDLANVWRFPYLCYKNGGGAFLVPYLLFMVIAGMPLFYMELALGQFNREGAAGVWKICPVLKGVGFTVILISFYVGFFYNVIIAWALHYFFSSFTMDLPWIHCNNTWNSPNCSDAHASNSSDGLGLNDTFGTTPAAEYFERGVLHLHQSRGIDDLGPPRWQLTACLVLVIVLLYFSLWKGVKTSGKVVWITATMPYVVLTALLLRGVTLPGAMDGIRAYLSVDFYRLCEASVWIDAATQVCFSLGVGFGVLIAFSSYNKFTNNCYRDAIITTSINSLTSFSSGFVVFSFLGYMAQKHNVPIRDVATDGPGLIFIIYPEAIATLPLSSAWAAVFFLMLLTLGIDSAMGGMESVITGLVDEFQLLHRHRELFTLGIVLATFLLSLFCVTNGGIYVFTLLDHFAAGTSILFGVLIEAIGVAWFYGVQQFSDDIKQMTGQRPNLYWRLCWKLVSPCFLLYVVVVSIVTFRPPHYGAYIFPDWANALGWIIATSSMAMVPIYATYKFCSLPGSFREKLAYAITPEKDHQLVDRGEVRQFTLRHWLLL
Method: A SPECT scan is performed. Strong evidence of different nonspecific binding in the striatal region, compared with the reference region is found, leading to bias in the estimate of dopaminergic denervation (range, 36%-94% severity) was found. […] The 6-hydroxydopamine lesion affected B(max) (control, 402±94 pmol/mL; lesioned, 117±120 pmol/mL; P=0.003) but not K app d (control, 331±63 pmol/mL; lesioned, 362±119 pmol/mL; P=0.63).

[3] = biological target: T1, dopamine transporter; experiment: SPECT imaging of the dopamine transporter, Lewy Body Dementia subjects; settings: six Lewy Body Dementia individuals, greater than 1 mCi intravenous
Method: as §1, with “^123I-PE2I” for “1231-PE2I”, “Lewy Body Dementia,” for “ADHD,”, “Lewy Body Dementia.” for “ADHD.”, “29:125 41,” for “29:125-41,”

T1 sequence (Q01959 whole entry): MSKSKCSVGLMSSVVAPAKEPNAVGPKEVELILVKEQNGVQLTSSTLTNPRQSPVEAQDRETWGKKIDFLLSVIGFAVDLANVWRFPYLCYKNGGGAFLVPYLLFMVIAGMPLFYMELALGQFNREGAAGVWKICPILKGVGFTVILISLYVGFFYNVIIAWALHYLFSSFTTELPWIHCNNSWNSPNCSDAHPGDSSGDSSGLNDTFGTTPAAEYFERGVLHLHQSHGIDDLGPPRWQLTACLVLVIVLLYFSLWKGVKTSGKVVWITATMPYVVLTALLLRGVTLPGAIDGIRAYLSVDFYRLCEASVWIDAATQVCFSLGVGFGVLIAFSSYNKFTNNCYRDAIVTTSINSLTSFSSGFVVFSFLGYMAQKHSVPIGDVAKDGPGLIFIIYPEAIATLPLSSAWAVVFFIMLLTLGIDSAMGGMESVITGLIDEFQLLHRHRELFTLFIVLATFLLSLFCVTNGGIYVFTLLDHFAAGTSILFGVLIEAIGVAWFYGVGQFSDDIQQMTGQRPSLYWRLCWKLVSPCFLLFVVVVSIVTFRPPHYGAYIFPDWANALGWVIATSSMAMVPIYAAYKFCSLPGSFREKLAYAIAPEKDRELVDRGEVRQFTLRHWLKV

For `COC(=O)[C@@H]1C2CC[C@H](C[C@@H]1c1ccc(C)cc1)N2C/C=C/I` [[^123I]-PE2I, [^123I] N-(3-iodoprop-2E-enyl)-2β-carbomethoxy-3β-(4-methylphenyl)-nortropane], the “striatal binding potential versus expected levels for aged matched normal individuals” value [1] was “reduced binding potential”, the “B(max)” value ([2]; 6-hydroxydopamine lesioned) was 117 ± 120 pmol/mL and the “B(max)” value ([2]; control) was 402 ± 94 pmol/mL. For the same compound, the “striatal binding potential versus expected levels for aged matched normal individuals” value [3] was “reduced binding potential”.
